Test results reported in patent US12644097B2, “Differentiation of trophectoderm lineage cells from pluripotent stem cells” (The United States of America, as represented by the …, priority 2020, dated 2026).

What was measured:
[1] = cited from earlier work; for IC50: as described in Sidrauski et al. eLIFE 2:e00498 (2013)
[2] = tested on: trophoblast stem-like cells; assay: Passaging of trophoblast stem-like cells in TE3 medium with or without Chroman 1 or CEPT supplementation; type: cell-based, human; conditions: additional 25 nM Chroman 1, alone or as component of CEPT, in TE3 medium (total 50 nM Chroman 1) for first 24 hours after passaging; WA09-derived cells, reproduced with JHU191i, JHU198i, MCW032i, WA07
Method: To generate self-renewing trophoblast stem-like cells from the syncytiotrophoblast-like structures, the syncytiotrophoblast-like structures were cultured in TE3 medium: TE2 medium supplemented with 300 nM CHIR98014, 100 ng/ml EGF, 50 ng/ml HGF, 80 ng/ml R-spondin 1, 50 ng/ml R-spondin 3, 2.5 μM prostaglandin E2 and 25 nM Chroman 1. Trophoblast stem-like cells appeared in the cultures and started proliferating after a very short time following the start of the culturing into TE3 medium. The cells created compact epithelial-like colonies with cobblestone morphology and clearly defined border. The individual cells gradually became more compact. This morphological transformation was most obvious at passage 3 performed in TE3 medium.
The trophoblast stem-like cells were cultured in TE3 medium with or without CEPT supplementation, and also with or without Chroman 1 supplementation. For Chroman 1 or CEPT supplementation, when the trophoblast stem-like cells were passaged, the cells were seeded into TE3 medium supplemented with either an additional 25 nM Chroman 1 (for Chroman 1 supplementation) or CEPT containing 25 nM Chroman 1 (for CEPT supplementation). Since TE3 medium already contained 25 nM Chroman 1, only another 25 nM was added either alone or as a component of CEPT, so that the total concentration of Chroman 1 in TE3 medium was 50 nM for the first 24 hours after passaging. […]

Row | SMILES | IC50 [1] [nM] | potency of trans-ISRIB relative to cis-ISRIB ([1]; trans-ISRIB more potent than cis-ISRIB, Sidrauski et al. 2013) [fold] | effect of supplementation at passaging on trophoblast stem-like cells [2]
1 | O=C(COc1ccc(Cl)cc1)N[C@H]1CC[C@H](NC(=O)COc2ccc(Cl)cc2)CC1 [trans-ISRIB, N,N′-((1r,4r)-cyclohexane-1,4-diyl)bis(2-(4-chlorophenoxy)acetamide)] | 5 | 100 | –
2 | O=C(COc1ccc(Cl)cc1)NC1CCC(NC(=O)COc2ccc(Cl)cc2)CC1 (stereo not drawn) [cis-ISRIB] | 600 | – | –
3 | COc1ccc2c(c1)C[C@H](C(=O)Nc1ccc(-c3cn[nH]c3)cc1OCCN(C)C)CO2 [Chroman 1, (3S)—N-{2-[2-(Dimethylamino)ethoxy]-4-(1H-pyrazol-4-yl)phenyl}-6-methoxy-3,4-dihydro-2H-1-benzopyran-3-carboxamide] | – | – | benefited
